Measurements: patent US11168102B1, “Bicyclic heteroaryl compounds and uses thereof” (Revolution Medicines, Inc., priority 2019, dated 2021)

system: cellular pERK in PC-9 cells (EGFR Ex19Del); assay: Potency assay: pERK (AlphaLISA SureFire Ultra p-ERK1/2) in PC-9 cells; assay type: cell-based; conditions: Homo sapiens, PC-9, 1 h, PC-9 cells (EGFR Ex19Del), 1 hour incubation, AlphaLISA SureFire Ultra p-ERK1/2; read-out: SOS1 pERK IC50

| SMILES | IC50 |
| --- | --- |
| Cc1nc(N[C@H](C)c2cccc(C(F)(F)CO)c2)c2cc(C3=CCNCC3)c(=O)n(C)c2n1 [Example 4, (R)-4-((1-(3-(1,1-difluoro-2-hydroxyethyl)phenyl)ethyl)amino)-2,8-dimethyl-6-(1,2,3,6-tetrahydropyridin-4-yl)pyrido[2,3-d]pyrimidin-7(8H)-one] | 481 nM |
| CC(=O)NC12CC(c3cc4c(N[C@H](C)c5cccc(C(F)F)c5F)ncnc4n(C)c3=O)(C1)C2 [Example 70, N-[3-(4-{[(1R)-1-[3-(difluoromethyl)-2-fluorophenyl]ethyl]amino}-8-methyl-7-oxo-7H,8H-pyrido[2,3-d]pyrimidin-6-yl)bicyclo[1.1.1]pentan-1-yl]acetamide] | 121 nM |
| C[C@@H](Nc1ncnc2c1cc(C1(C)CCS(=O)(=O)CC1)c(=O)n2C)c1cccc(C(F)F)c1F [Example 37, 4-(4-{[(1R)-1-[3-(difluoromethyl)-2-fluorophenyl]ethyl]amino}-8-methyl-7-oxo-7H,8H-pyrido[2,3-d]pyrimidin-6-yl)-4-methyl-1λ^6-thiane-1,1-dione] | 49.9 nM |
| C[C@@H](Nc1ncnc2c1cc(C(=O)N1CC[C@@H]3CO[C@@H]3C1)c(=O)n2C)c1cccc(C(F)F)c1F [Example 26-16] | 729 nM |
| C[C@@H](Nc1ncnc2c1cc(C1=CCS(=O)(=O)CC1)c(=O)n2C)c1cccc(C(F)(F)C#N)c1F [Example 41, 2-{3-[(1R)-1-{[6-(1,1-dioxo-3,6-dihydro-2H-1λ^6-thiopyran-4-yl)-8-methyl-7-oxo-7H,8H-pyrido[2,3-d]pyrimidin-4-yl]amino}ethyl]-2-fluorophenyl}-2,2-difluoroacetonitrile] | 4480 nM |
| C[C@@H](Nc1ncnc2c1cc(C(=O)N1CC3CCC(C1)O3)c(=O)n2C)c1cccc(C(F)F)c1F [Example 26-19] | 295 nM |
| C[C@@H](Nc1ncnc2c1cc(C1CCS(=O)(=NC3COC3)CC1)c(=O)n2C)c1cccc(C(F)F)c1F (stereo partly drawn) [Example 60, 4-[[(1R)-1-[3-(difluoromethyl)-2-fluoro-phenyl]ethyl]amino]-8-methyl-6-[1-(oxetan-3-ylimino)-1-oxo-thian-4-yl]pyrido[2,3-d]pyrimidin-7-one] | 23.1 nM |
| C[C@@H](Nc1ncnc2c1cc(C1(O)CC3CCC(C1)S3(=O)=O)c(=O)n2C)c1cccc(C(F)F)c1F (stereo partly drawn) [Example 28-5] | 157 nM |
| C[C@@H](Nc1ncnc2c1cc(C1=CC[S+]([O-])CC1)c(=O)n2C)c1cccc(C(F)F)c1F (stereo partly drawn) [Example 22, 4-(((R)-1-(3-(difluoromethyl)-2-fluorophenyl)ethyl)amino)-8-methyl-6-(1-oxido-3,6-dihydro-2H-thiopyran-4-yl)pyrido[2,3-d]pyrimidin-7(8H)-one] | 122 nM |
| C[C@@H](Nc1ncnc2c1cc(C1=CCCOC1)c(=O)n2C)c1cccc(C(F)F)c1F [Example 1-6] | 180 nM |
| CC(=O)N1CC2(C1)CN(C(=O)c1cc3c(N[C@H](C)c4cccc(C(F)F)c4F)ncnc3n(C)c1=O)C2 [Example 26-40] | 453 nM |
| C[C@@H](Nc1ncnc2c1cc(C(=O)N1CC3(CCOCC3)C1)c(=O)n2C)c1cccc(C(F)F)c1F [Example 26-33] | 152 nM |
| C[C@@H](Nc1ncnc2c1cc(C(=O)N1CCc3cnccc31)c(=O)n2C)c1cccc(C(F)F)c1F [Example 26-27] | 803 nM |
| Cc1nc(N[C@H](C)c2cccc(C(F)(F)CO)c2)c2cc(C3=CCOCC3)c(=O)n(C)c2n1 [Example 3, (R)-4-((1-(3-(1,1-difluoro-2-hydroxyethyl)phenyl)ethyl)amino)-6-(3,6-dihydro-2H-pyran-4-yl)-2,8-dimethylpyrido[2,3-d]pyrimidin-7(8H)-one] | 79.4 nM |
| C[C@@H](Nc1ncnc2c1cc(C(=O)N1CCOC3(CCOC3)C1)c(=O)n2C)c1cccc(C(F)F)c1F (stereo partly drawn) [Example 26-46] | 322 nM |
| C[C@@H](Nc1ncnc2c1cc(C1(O)CS(=O)(=O)C1)c(=O)n2C)c1cccc(C(F)F)c1F [Example 28-7] | 322 nM |
| C[C@@H](Nc1ncnc2c1cc(C1(F)CN(C)C1)c(=O)n2C)c1cccc(C(F)F)c1F [Example 29-1] | 122 nM |

More lines, now with the values ahead:

| IC50 | SMILES |
| --- | --- |
| 20.3 nM | COC1(c2cc3c(N[C@H](C)c4cccc(C(F)F)c4F)ncnc3n(C)c2=O)CCC(S(C)(=O)=O)CC1 (stereo partly drawn) [Example 32-59] |
| 172 nM | COC1(c2cc3c(N[C@H](C)c4cccc(C(F)F)c4F)ncnc3n(C)c2=O)C[C@H](C)N(C(C)=O)C1 (stereo partly drawn) [Example 32-38] |
| 18.1 nM | CO[C@]1(c2cc3c(N[C@H](C)c4cccc(C(F)F)c4F)ncnc3n(C)c2=O)CCN(C(C)=O)C(C)(C)C1 [Example 32-52] |
| 268 nM | CC(=O)N1CC[C@@](C#N)(c2cc3c(N[C@H](C)c4cccc(C(F)F)c4F)ncnc3n(C)c2=O)C1 [Example 36-11] |
| 41.2 nM | Cc1c(C(F)F)cccc1[C@@H](C)Nc1ncnc2c1cc(C1CCS(=O)(=O)CC1)c(=O)n2C [Example 33-5] |
| 93.7 nM | COC1(c2cc3c(N[C@H](C)c4cccc(C(F)F)c4F)ncnc3n(C)c2=O)CCOCC1 [Example 32-56] |
| 45.6 nM | C[C@@H](Nc1ncnc2c1cc(C1(N)CCS(=O)(=O)C1)c(=O)n2C)c1cccc(C(F)F)c1F (stereo partly drawn) [Example 31-7] |
| 53.7 nM | COC1(c2cc3c(N[C@H](C)c4cccc(C(F)F)c4F)ncnc3n(C)c2=O)CCN(C(C)=O)C(C)(C)C1 (stereo partly drawn) [Example 32-29] |
| 33.3 nM | C[C@@H](Nc1ncnc2c1cc(C1(C#N)CC3(C1)CS(=O)(=O)C3)c(=O)n2C)c1cccc(C(F)F)c1F [Example 36-6] |
| 49.3 nM | COC1(c2cc3c(N[C@H](C)c4cccc(C(F)F)c4F)ncnc3n(C)c2=O)CC2(CN(C(C)=O)C2)C1 [Example 32-15] |
| 73.8 nM | [2H]C(=O)N1CCC(c2cc3c(N[C@H](C)c4cccc(C(F)F)c4F)ncnc3n(C)c2=O)CC1 [Example 33-25] |
| 21.1 nM | COC1(c2cc3c(N[C@H](C)c4cccc(C(F)F)c4F)ncnc3n(C)c2=O)CCN(C=O)CC1 [Example 32-60] |
| 92.5 nM | C[C@@H](Nc1ncnc2c1cc(C1CCS(=O)(=O)CC1)c(=O)n2C)c1cccc(C(F)F)c1Cl [Example 33-4] |
| 355 nM | COC1(c2cc3c(N[C@H](C)c4cccc(C(F)F)c4F)ncnc3n(C)c2=O)CCN(C(C)=O)C2(CC2)C1 (stereo partly drawn) [Example 32-42] |
| 271 nM | CC(=O)N1CC[C@@H](c2cc3c(N[C@H](C)c4cccc(C(F)F)c4F)ncnc3n(C)c2=O)C1 [Example 33-14] |
| 35.7 nM | COC1(c2cc3c(N[C@H](C)c4cccc(C(F)F)c4F)ncnc3n(C)c2=O)CC2(C1)CS(=O)(=O)C2 [Example 32-5] |
| 180 nM | C[C@@H](Nc1ncnc2c1cc(C1(N)CC3(C1)CS(=O)(=O)C3)c(=O)n2C)c1cccc(C(F)F)c1F [Example 31-4] |
| 9.29 nM | COC1(c2cc3c(N[C@H](C)c4cccc(C(F)F)c4F)ncnc3n(C)c2=O)CCC2(CC1)CS(=O)(=O)C2 [Example 32-4] |

same assay, conditions: Homo sapiens, PC-9, 1 h, read-out: SOS1 pERK IC50

| SMILES | IC50 |
| --- | --- |
| C[C@@H](Nc1ncnc2c1cc(C1(N)CCC3(CC1)CS(=O)(=O)C3)c(=O)n2C)c1cccc(C(F)F)c1F [Example 31-5] | 26.7 nM |

same assay, conditions: PC-9 cells (EGFR Ex19Del), 1 hour incubation, AlphaLISA SureFire Ultra p-ERK1/2; read-out: SOS1 pERK IC50

| SMILES | IC50 |
| --- | --- |
| COC1(c2cc3c(N[C@H](C)c4cccc(C(F)F)c4F)ncnc3n(C)c2=O)CCS(=N)(=O)CC1 (single isomer, unassigned) [Example 50] | 112 nM |
| CN=S1(=O)CCC(c2cc3c(N[C@H](C)c4cccc(C(F)F)c4F)ncnc3n(C)c2=O)CC1 (single isomer, unassigned) [Example 64] | 131 nM |
| C[C@@H](Nc1ncnc2c1cc(C1CCS(=N)(=O)CC1)c(=O)n2C)c1cccc(C(F)F)c1F (stereo partly drawn) [Example 35, (R)-4-((1-(3-(difluoromethyl)-2-fluorophenyl)ethyl)amino)-6-(1-imino-1-oxidohexahydro-1λ^6-thiopyran-4-yl)-8-methylpyrido[2,3-d]pyrimidin-7(8H)-one] | 127 nM |
| C[C@@H](Nc1ncnc2c1cc(C1=CCS(=O)(=NC3COC3)CC1)c(=O)n2C)c1cccc(C(F)F)c1F (stereo partly drawn) [Example 66, 4-(((R)-1-(3-(difluoromethyl)-2-fluorophenyl)ethyl)amino)-8-methyl-6-((R)-1-(oxetan-3-ylimino)-1-oxido-1,2,3,6-tetrahydro-1λ^6-thiopyran-4-yl)pyrido[2,3-d]pyrimidin-7(8H)-one] | 29.1 nM |
| C[C@@H](Nc1ncnc2c1cc(C1(F)CCP(C)(=O)CC1)c(=O)n2C)c1cccc(C(F)F)c1F (stereo partly drawn) [Example 29-10] | 140 nM |

Further lines, results first:

| IC50 | SMILES |
| --- | --- |
| 575 nM | C[C@@H](Nc1ncnc2c1cc(C1(N)CCP(C)(=O)CC1)c(=O)n2C)c1cccc(C(F)F)c1F (stereo partly drawn) [Example 31-11] |
| 294 nM | C[C@@H](Nc1ncnc2c1cc(C1(F)CCC3(CC1)CS(=O)(=NC1CC1)C3)c(=O)n2C)c1cccc(C(F)F)c1F (single isomer, unassigned) [Example 56-2] |
| 54.7 nM | CC1CC(c2cc3c(N[C@H](C)c4cccc(C(F)F)c4F)ncnc3n(C)c2=O)CCS1(=O)=O (stereo partly drawn) [Example 33-8] |
| 301 nM | CC(=O)N1CCC2(c3cc4c(N[C@H](C)c5cccc(C(F)F)c5F)ncnc4n(C)c3=O)CC2C1 (single isomer, unassigned) [Example 54-4] |
| 1200 nM | C[C@@H](Nc1ncnc2c1cc(C1CCP(C)(=O)CC1)c(=O)n2C)c1cccc(C(F)F)c1F (stereo partly drawn) [Example 33-22] |
| 40.7 nM | CC1CC(c2cc3c(N[C@H](C)c4cccc(C(F)F)c4F)ncnc3n(C)c2=O)CCS1(=O)=O (stereo partly drawn) [Example 33-12] |
| 53.7 nM | CC(=O)N1CCC2(c3cc4c(N[C@H](C)c5cccc(C(F)F)c5F)ncnc4n(C)c3=O)CC2C1 (single isomer, unassigned) [Example 54-1] |
| 50.3 nM | COC1(c2cc3c(N[C@H](C)c4cccc(C(F)F)c4F)ncnc3n(C)c2=O)CCS(=O)(=O)C(C)C1 (stereo partly drawn) [Example 32-65] |
| 148 nM | COC1(c2cc3c(N[C@H](C)c4cccc(C(F)F)c4F)ncnc3n(C)c2=O)CCP(C)(=O)CC1 (stereo partly drawn) [Example 32-46] |
| 386 nM | C[C@@H](Nc1ncnc2c1cc(C1(C#N)CCC3(CC1)CS(=O)(=NC1CC1)C3)c(=O)n2C)c1cccc(C(F)F)c1F (single isomer, unassigned) [Example 58-1] |
